Read-outs that look alike come from different tables or passages of the source.
Experiment: Metabolic stability and intrinsic clearance in human liver microsomes (MICS)
Format: in vitro ADME
Settings: pH 7.4
Procedure, shortened: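 Test compound (1 μM final) incubated at 37° C with liver microsomes (0.5 mg/mL protein) in 100 mM phosphate buffer pH 7.4, with 1 mM NADPH or without cofactor; sampled at 0.5–60 min, quenched with cold acetonitrile. Parent remaining quantified by LC-MS/MS; t1/2 from ln-% remaining slope converted to CLint (μL/min/mg protein).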

SMILES	microsomal CLint at 1 μM (human, microsomes) [µL/min/mg]	microsomal CLint at 1 μM (human liver microsomes 0.5 mg/mL, 1 μM compound, read-out: intrinsic clearance in human MICS) [µL/min/mg]
Cc1cc([C@@H](C)Oc2ccc(Cl)nc2-c2noc(=O)[nH]2)c2oc(-c3ccc4c(c3)OC(F)(F)O4)c(C)c(=O)c2c1 [Example 46A, 3-[6-Chloro-3-[(1R)-1-[2-(2,2-difluoro-1,3-benzodioxol-5-yl)-3,6-dimethyl-4-oxo-chromen-8-yl]ethoxy]-2-pyridyl]-4H-1,2,4-oxadiazol-5-one]	< 50	
Cc1cc([C@@H](C)Oc2ccc(Cl)nc2C(N)=O)c2oc(-c3cc(F)c4nn(C)cc4c3)c(C)c(=O)c2c1 [Example 17B, 6-Chloro-3-[(1R)-1-[2-(7-fluoro-2-methyl-indazol-5-yl)-3,6-dimethyl-4-oxo-chromen-8-yl]ethoxy]pyridine-2-carboxamide]	< 50	
Cc1cc([C@@H](C)Oc2ccc(Cl)nc2NS(C)(=O)=O)c2oc(-c3cnn(C)c3)c(C)c(=O)c2c1 [Example 149A, N-[6-Chloro-3-[(1R)-1-[3,6-dimethyl-2-(1-methylpyrazol-4-yl)-4-oxo-chromen-8-yl]ethoxy]-2-pyridyl]methanesulfonamide]		< 50

More lines, main results first:

microsomal CLint at 1 μM (human, microsomes) [µL/min/mg]	SMILES	microsomal CLint at 1 μM (human liver microsomes 0.5 mg/mL, 1 μM compound, read-out: intrinsic clearance in human MICS) [µL/min/mg]
< 50	CC(=O)Nc1ccc(-c2oc3c([C@@H](C)Oc4ccc(Cl)nc4C(N)=O)cc(C)cc3c(=O)c2C)cc1 [Example 58C, 3-[(1R)-1-[2-(4-Acetamidophenyl)-3,6-dimethyl-4-oxo-chromen-8-yl]ethoxy]-6-chloro-pyridine-2-carboxamide]	
< 50	Cc1cc([C@@H](C)Oc2ccc(Br)nc2C(N)=O)c2oc(-c3ccc4nn(C)cc4c3)c(C)c(=O)c2c1 [Example 81C, 6-Bromo-3-[(1R)-1-[3,6-dimethyl-2-(2-methylindazol-5-yl)-4-oxo-chromen-8-yl]ethoxy]pyridine-2-carboxamide]	

Source: patent US20240182460A1, “ALLOSTERIC CHROMENONE INHIBITORS OF PHOSPHOINOSITIDE 3-KINASE (PI3K) FOR THE TREATMENT OF DISEASE” (PETRA PHARMA CORPORATION, priority 2022, published 2024)
